The text below walks through data of US7235267B1, “Brain cell or nerve cell-protecting agents comprising medicinal ginseng” (priority 1999, dated 2007).

Read-outs that look alike come from different tables or passages of the source.

For assay [1], the system named is co-cultures of nerve cells (neurons) and oligodendrocytes. Description: Co-culture of nerve cells and oligodendrocytes, Western blotting of MAP2 and CNPase. Format: cell-based, rat. The source says:
As generally known, in myelinated nerve fibers within brain and nervous tissues, oligodendrocytes form myelin by ensheathing axons of neurons repeatedly. Further, in unmyelinated nerve fibers, processes of oligodendrocytes surround axons of neurons only once. In the brain and nervous tissues, nerve cells (neurons) and oligodendrocytes are at any time holding close positional relationship. The present inventors performed co-cultures of nerve cells and oligodendrocytes to investigate whether or not ginsenoside Rb1 promotes survival of both cells. For that purpose, nerve cells (neurons) were isolated from cerebral cortices of fetal rats at gestational day 17. The mixed brain cell culture was initiated to isolate oligodendrocytes by using the forebrain of newborn rats. Fifty thousands of oligodendrocytes and 500,000 nerve cells were cocultured. To this culture system was added 1 fg/ml to 10 pg/ml ginsenoside Rb1 in DMEM containing 1% fetal calf serum, and the mixed cells were cultured for 5 days. Subsequently, samples for electrophoresis were prepared and contents of the neuron-specific protein MAP2 (microtubule-associated protein 2) and the oligodendrocyte-specific protein CNPase (cyclic nucleotide […]) in the culture well were assayed by means of Western blotting. […]
Background: Immunoblotting shows a protein as a band on a membrane.

For a further assay, the system named is Bcl-xL. Description: Bcl-xL expression in primary cultured myocardial cells (RT-PCR, immunoblotting). Format: cell-based, rat. Here is the method: Next, we have studied effect of ginsenoside Rb1 on the heart. For that purpose, for example, changes in the expression of Bcl-xL mRNA and Bcl-xL protein were examined with RT-PCR and immunoblotting, when primary cultured myocardial cells were cultured for 18 hours in the presence of ginsenoside Rb1. Myocardial cells were prepared as follows. The hearts of fetal rats at gestational day 17 were treated with trypsin EDTA to prepare dispersed cells, which were cultured for several days in DMEM containing 10% FCS (fetal calf serum). In RT-PCR, β-actin mRNA was used as the internal standard. In the immunoblotting, troponin T, a striated muscle-specific protein, was used as the internal standard, and expression of Bcl-xL protein was examined. In the immunoblotting, the same experiments were repeated 10 times by using different lots of myocardial cells, and Bcl-xL immunoreaction-positive bands were analyzed by densitometry and statistical analysis was performed.
Subsequently we studied the effectiveness of ginsenoside Rb1 on heart. For that purpose, for example, changes in the expressions of Bcl-xL mRNA and Bcl-xL protein were examined with the use of RT-PCR and immunoblotting, when the primary cultured myocardial cells were cultured for 18 hours in the presence of ginsenoside Rb1. Myocardial cells were prepared as follows. The hearts of fetal rats at gestational day 17 were treated with trypsin EDTA to prepare the dispersed cells, which were cultured for several days in DMEM containing 10% FCS (fetal calf serum). In RT-PCR, β-actin mRNA was used as the internal standard. In the immunoblotting, troponin T, a striated muscle-specific protein, was used as the internal standard, and expression of Bcl-xL protein was examined. In the immunoblotting, the same experiments were repeated 10 times by using different lots of myocardial cells, and Bcl-xL immunoreaction-positive bands were analyzed by densitometry and statistical analysis was performed.

Assay [2] relates to gerbils with transient forebrain ischemia (hippocampal CA1 neurons). Conditions: cited from earlier work.

For the compound `CC(C)=CCC[C@](C)(O[C@@H]1O[C@H](CO[C@@H]2O[C@H](CO)[C@@H](O)[C@H](O)[C@H]2O)[C@@H](O)[C@H](O)[C@H]1O)[C@H]1CC[C@]2(C)[C@@H]1[C@H](O)C[C@@H]1[C@@]3(C)CC[C@H](O[C@@H]4O[C@H](CO)[C@@H](O)[C@H](O)[C@H]4O[C@@H]4O[C@H](CO)[C@@H](O)[C@H](O)[C@H]4O)C(C)(C)[C@@H]3CC[C@]12C` [ginsenoside Rb1], the “band of MAP2 and band of CNPase (survival of nerve cells and oligodendrocytes)” value in assay [1] (1 fg/ml to 100 fg/ml, 5 days, vs non-added and 10^4 fg/ml groups) was “obviously intense”. Moreover, the “concentrations that made intense the MAP2 and CNPase bands” value in assay [1] (FIG. 22) was in the range of 1 to 100 fg/mL. Besides, the “expression of Bcl-xL protein in myocardial cells” value in the assay on Bcl-xL (1 fg/ml to 10^4 fg/ml, 18 hours, n=10) is given as “significantly enhanced”. Moreover, in the assay with Bcl-xL (1 fg/ml-100 fg/ml, 18 hours), the “expression of Bcl-xL mRNA in myocardial cells” value is “obviously increased”. Also, the “concentrations increasing Bcl-xL mRNA in myocardial cells” value with Bcl-xL (FIG. 25) was 1 to 100 fg/mL. In addition, the entries for the “delayed neuronal death and learning disability” value in assay [2] (intracerebroventricular infusion immediately after 3 or 3.5 minute occlusion) and in assay [2] (intraperitoneal 10 or 20 mg/kg once a day for one week in advance of 5-minute occlusion) were “suppressed” and “significantly prevent”, respectively. The “nerve cells in the hippocampal CA1 area rescued” value in assay [2] (intraperitoneal 10 or 20 mg/kg/day before cerebral ischemia) is recorded as “approximately 30%”. Also, the “effect on delayed neuronal death” value in assay [2] (intraperitoneal immediately after 3- or 5-minute occlusion of common carotid arteries) is recorded as “no effect”.
